Laboratory results from US20260077018A1, “TREATMENT OF MILD TRAUMATIC BRAIN INJURY” (OXEIA BIOPHARMACEUTICALS, INC., priority 2022, published 2026).
No end group written: not given here. *: point of attachment. Octanoyl = CCCCCCCC(=O)*

Key:
[1] = system: persistently symptomatic concussion patients; assay: Phase 2 study of OXE-103 in persistently symptomatic concussion: QOLIBRI quality of life; format: in vivo, human; details: Treated, 13 subjects
Method: Describe the change in quality of life between the two groups. This aim defines one of the secondary objectives. To assess this, the Quality of Life after Brain Injury scale (QOLIBRI) and a Patient Global Assessment of Status (PGAS) are administered. […] The primary objective with this aim assesses the change between days 1 and 14.
Described herein is a randomized, double-blind, placebo-controlled design where 40 subjects will be randomized to either a placebo cohort or a treatment with OXE-103 cohort. We randomize using the RedCap database. The database is set up to share randomization allocation only with the investigational pharmacy. All subjects are consented and begin the screening period within 28 days post-injury. There is a 7-day screening period prior to randomization and commencement of study treatment to allow for assessment of stability of symptom burden. This screening period must start no later than 28 days post-injury. Starting with Day 1 (end of screening period), the treatment cohort receives OXE-103 40ug/kg SC twice daily by self-injection and the placebo group receives a placebo injection SC twice daily. Study drug and placebo are maintained and dispensed by Investigational Pharmacy. Subjects receive an 8-day supply of syringes pre-loaded with OXE-103 or placebo. Each cohort receives the 2nd set of syringes with OXE-103 or placebo at the day 7 visit. No therapies other than OXE-103 are administered during the 14-day treatment period to either cohort. After completion of 14 days of either placebo or OXE-103 treatment, starting with the Day 14 visit, other medications and therapies can be initiated for either cohort as needed.
Quality of Life (AIM 2): A secondary goal is to examine change in quality of life with treatment of sub-acute concussion. Without bewing bound by theory, it is hypothesized that OXE-103 will reduce symptoms when comparing days 1 and 15 and therefore improve quality of life as assessed by 1) Quality of Life after Brain Injury scale (QOLIBRI) and 2) a PGAS.
The QOLIBRI is a 37 item instrument specifically developed to assess health-related quality of life (HRQoL) of individuals after traumatic brain injury. This is built into a RedCap Survey that will be completed online. Since it was developed for TBI as a disease or condition-specific HRQoL instrument, it is expected to be more sensitive than generic quality of life tools. The QOLIBRI was developed by an international task force in two multi-language studies involving over 2000 persons after TBI. Use of a TBI-specific assessment of HRQoL can detect the effects of interventions by measuring physical, psychological, daily life and psychosocial changes typical of TBI. An increase/decrease of 20% in QOLIBRI is judged to represent an improvement.
The QOL measures are obtained on day 1, 4, 8, 11, 15, 21, & 44. The completion of these takes an estimated 15 minutes.
(§1) A Phase 2 study of treatment of persistently symptomatic concussion patients with ghrelin (OXE-103) was undertaken at the University of Kansas Medical Center generally as described in Example 1. The interim results are reported herein (FIG. 1).
(§2) A study to treat patients with sub-acute concussion using a pharmaceutical formulation of ghrelin (OXE-103) was performed. The completed results from treatment group of 10 patients were compared to a 3 patient placebo group receiving standard of care (SoC). Additionally, two other patients are currently undergoing the treatment arm of the study at the time of the interim report. The study was performed in a randomized, double blind fashion and compared using self-report symptom scoring, quality of life questionnaires, computerized cognitive testing assessing executive function, memory and processing speed, and accelerometer-based balance scoring.
Feedback from clinicians indicated a 20% decrease in concussion symptoms would be considered clinically significant improvement. […]

[2] = system: persistently symptomatic concussion patients; assay: Phase 2 study interim analysis, efficacy endpoints overall; format: in vivo, human
Method: as §1, §2
Efficacy endpoints for the interim study were: PCSS—22 symptom concussion scoring scale, QOLIBRI—WHO TBI specific Quality of Life after Brain Injury, and BRAIN CHECK—digital assessment of cognition, balance, visual changes (510K FDA approved).
Feedback from clinicians indicated a 20% decrease in concussion symptoms would be considered clinically significant improvement. Graphs of QOLIBRI (FIG. 3A), PCSS—total severity score (FIG. 4A), PGAS (FIG. 5A), 4MB3S (FIG. 6A), and PCSS number of symptoms (FIG. 7A) show a black line for 20% change from baseline. The graphs in FIGS. 3A, 4A, 5A, 6A, and 7A show average scores per time point for each endpoint at days 1, 4, 8, 11, 15, 21 and 44 for both the treatment and control (SoC) arms. For PCSS, number of symptoms, PGAS, and 4MBS, a patient is considered to have responded to treatment if percent change is less than or equal to −20% compared to baseline. For QOLIBRI, a patient is considered to have responded to treatment if percent change is greater than or equal to 20% compared to baseline.

## ghrelin (GSS(Octanoyl)FLSPEHQRVQQRKESKKPPAKLQPR; UniProt Q9UBU3 24-51, looked up) [OXE-103, naturally occurring peptide comprising 28 amino acids that include an N-octanoyl group at the 3-position of serine]
[1]; Day 1
  20% Responders - QOLIBRI: Number of Responders: 0
  20% Responders - QOLIBRI: Responder %: 0%
  30% Responders - QOLIBRI: Number of Responders: 0
  30% Responders - QOLIBRI: Responder %: 0%
[1]; Day 4
  20% Responders - QOLIBRI: Number of Responders: 4
  20% Responders - QOLIBRI: Responder %: 31%
  30% Responders - QOLIBRI: Number of Responders: 3
  30% Responders - QOLIBRI: Responder %: 23%
[1]; Day 8
  20% Responders - QOLIBRI: Number of Responders: 4
  20% Responders - QOLIBRI: Responder %: 31%
  30% Responders - QOLIBRI: Number of Responders: 4
  30% Responders - QOLIBRI: Responder %: 31%
[1]; Day 11
  20% Responders - QOLIBRI: Number of Responders: 7
  20% Responders - QOLIBRI: Responder %: 54%
  30% Responders - QOLIBRI: Number of Responders: 5
  30% Responders - QOLIBRI: Responder %: 38%
[1]; Day 15
  20% Responders - QOLIBRI: Number of Responders: 7
  20% Responders - QOLIBRI: Responder %: 54%
  30% Responders - QOLIBRI: Number of Responders: 5
  30% Responders - QOLIBRI: Responder %: 38%
[1]; Day 21
  20% Responders - QOLIBRI: Number of Responders: 9
  20% Responders - QOLIBRI: Responder %: 69%
  30% Responders - QOLIBRI: Number of Responders: 7
  30% Responders - QOLIBRI: Responder %: 54%
[1]; Day 44
  20% Responders - QOLIBRI: Number of Responders: 11
  20% Responders - QOLIBRI: Responder %: 85%
  30% Responders - QOLIBRI: Number of Responders: 10
  30% Responders - QOLIBRI: Responder %: 77%
[2]; across study endpoints
  durability of treatment effects: at least 44 days
[2]; both endpoints, by 40 days after start of treatment
  Responder Rate (RR): 80%
[2]; persistently effected population
  onset of treatment effect: 8 to 10 days
[2]; within 8-10 days of treatment, interim time point
  improvement: greater than 20%
